Laboratory results from patent US10617679B2, “Deuterated compounds and medical uses thereof” (JINGLUWEIDAI INFORMATION CONSULTING SERVICE (BEIJING) CO. …, priority 2016, dated 2020).

Assays:
rat formalin model = assay: Analgesic effects of intragastric administration in a rat formalin model; assay type: in vivo, SD rats; conditions: mean ± SD; for Reaction time for phase I: licking time 0-5 min after formalin; for Reaction time for Phase II: licking time 15-30 min after formalin
Protocol: SD rats (male, weight 160-180 g) were randomly divided into groups with 6 rats in each group. After the rats were intragastrically administered different doses separately, they were placed in PVC observation boxes for habituation. After 30 min, the rats were injected subcutaneously with 20 μL of 2.7% formalin solution into the plantar surface of the left hind paws, and quickly put back in the PVC observation boxes for observation. The length of time the rats spent licking the injected-formalin paws at the early response (0-5 min, phase I) and the late response (15-30 min, Phase II) was recorded, and the analgesic activities of the test compounds were evaluated according to the length of time the rats spent licking during the period of observation. The experimental data were expressed as mean±standard deviation. The shorter the licking time, the better the analgesic effect of the compound.

[1] = system: rat chronic sciatic nerve compression neuralgia model; assay: Analgesic effects of intragastric administration in a rat chronic sciatic nerve compression neuralgia model; assay type: in vivo, SD rats; conditions: pain threshold 1 hour after administration
Protocol: SD rats (male, weight 160-180 g) were anesthetized using sodium pentobarbital (40 mg/kg), of which the sciatic nerves were separated in the middle segment of the right hind limbs. In the anterior segment of the sciatic nerve to be bifurcated, the sciatic nerve was separated from the surrounding tissue using a sterile glass hook. Four rings were loosely ligated with sterile chrome gut (No. 4, 0.15 mm in diameter) by an interval of 1 to 2 mm. Topically sprinkled with penicillin powder. The muscle tissue and skin were sutured. The rats were placed in a cage with cork dust. In the sham surgery group, the sciatic nerve was only exposed, and the other treatments were the same as described above. The rats after surgery were placed in a metal cage. […] The weight of the filament was recorded and set to be the threshold (in g). Meanwhile, the number of foot-lifting response to the 10 stimulations of the fiber filaments of different weights was recorded, and the highest threshold was set at 26 g.
5-6 rats in each group were intragastrically administered and the pain thresholds were measured 1 hour after administration. Statistical analysis of the thresholds was performed using non-parametric Wilcoxon 2-Sample Test and Kruskal-Wallis Test, and the data was analyzed with SASS data processing software. Analgesic percent (%)=(pain threshold after drug treatment−pain threshold before drug treatment)/(maximal analgesia threshold−pain threshold before drug treatment)[…].

[2] = system: oxycodone-induced place preference in rats; assay: Inhibition of oxycodone-induced place preference in rats; assay type: in vivo, SD rats; conditions: day 10, within 15 minutes
Protocol: SD rats (male, weight 160-180 g) were placed in conditioned place preference (CPP) training boxes, where the partition door between the boxes was open. Time the rats spent in each of the boxes was recorded within 15 min in order to determine the natural tendency of the rats. The rats were then randomly divided into groups with 10 rats in each group according to the amount of time spent in the white box. The white box was a drug box, and the black box was a box with the absence of the drug. After intragastric administration with a test compound for 40 minutes, the rats were injected subcutaneously with oxycodone (2.5 mg/kg, s.c.) or saline, and immediately placed in the white box or the black box to be trained for 45 minutes, once a day for 9 consecutive days. On the 10th day, the rats were placed in the training boxes with the partition door open. The time the rats spent in the white box was recorded within 15 minutes to evaluate effects on place preference in the rats.

blood pressure in rats = assay: Effects on blood pressure in rats; assay type: in vivo, SD rats
Protocol: (§1) SD rats (male, weight 160-180 g) were fasted for 12 hours before administration but had free access to drinking water. The rats were randomly divided into groups. They were anesthetized with an intraperitoneal injection of 50-60 mg/kg dose of sodium pentobarbital. Each rat was fixed on the back on the surgical table. The skin was cut from the center of the neck, and an incision of about 2.5 cm was made. The subcutaneous tissue and the median muscle were separated; the trachea was fully exposed; and the endotracheal intubation was performed. The subcutaneous tissue was separated from front to back on the right side; the right common carotid artery, the vagus nerve and the sympathetic nerve were exposed; and the carotid artery cannulation was performed. Finally, the endotracheal tube and the carotid artery cannula were respectively connected to a respiration transducer and a blood pressure transducer, and then connected to a multifunctional physiological recorder. At 30 minutes after surgery, the rats were intragastrically administrated. Heart rate and blood pressure were measured at different time points after administration.

heart rate in rats = assay: Effects on heart rate in rats; assay type: in vivo, SD rats
Protocol: as §1

Wistar rats = assay: Evaluation of subacute toxicity (14 days, intragastric); assay type: in vivo; conditions: 40 mg/kg intragastric once a day for 14 days; for ALT / AST: rat; for histopathological examination of liver / plasma ALT and AST versus control group: result in words
Protocol: Male Wistar rats were randomly divided into groups with 10 rats in each group and weighed. A certain concentration of a test sample was ground and suspended in a 0.5% sodium carboxymethyl cellulose solution. The sodium carboxymethyl cellulose suspension containing 40 mg/kg of the test compound and a blank sodium carboxymethyl cellulose suspension as a control were intragastrically administered, once a day for 14 consecutive days. After the last administration, the rats were fasted but had free access to drinking water for 12 hours, and then anesthetized. Their blood samples were obtained from the abdominal aortas. According to SOPB093 “Standard Operating Procedures for Serum Preparation” in National Beijing Center for Drug Safety Evaluation and Research, serum was prepared for the determination of blood biochemical and immunological indicators; according to SOPB032 “Preparation of vacuum tubes with EDTA anticoagulation”, EDTA anticoagulation was prepared for the general blood routine tests.

[3] = test dose 10 mg/kg intragastric + oxycodone 2.5 mg/kg s.c.
[4] = test dose 20 mg/kg intragastric + oxycodone 2.5 mg/kg s.c.
[5] = 20 mg/kg intragastric, time point 0
[6] = 20 mg/kg intragastric, time point 30
[7] = 20 mg/kg intragastric, time point 60
[8] = 20 mg/kg intragastric, time point 90
[9] = 20 mg/kg intragastric, time point 120
[10] = 20 mg/kg intragastric, time point 180
[11] = 40 mg/kg intragastric, time point 0
[12] = 40 mg/kg intragastric, time point 30
[13] = 40 mg/kg intragastric, time point 60
[14] = 40 mg/kg intragastric, time point 90
[15] = 40 mg/kg intragastric, time point 120
[16] = 40 mg/kg intragastric, time point 180

| Compound | Reaction time for phase I (rat formalin model; 20 mg/kg intragastric) [s] | Reaction time for Phase II (rat formalin model; 20 mg/kg intragastric) [s] | Reaction time for phase I (rat formalin model; 40 mg/kg intragastric) [s] | Reaction time for Phase II (rat formalin model; 40 mg/kg intragastric) [s] | Analgesic percent ([1]; 20 mg/kg intragastric) [%] | Analgesic percent ([1]; 40 mg/kg intragastric) [%] | Time spent in the drug box (Mean ± S) [2, 3] [s] | Time spent in the drug box (Mean ± S) [2, 4] [s] | Blood pressure (blood pressure in rats; [5]) [mmHg] | Blood pressure (blood pressure in rats; [6]) [mmHg] | Blood pressure (blood pressure in rats; [7]) [mmHg] | Blood pressure (blood pressure in rats; [8]) [mmHg] | Blood pressure (blood pressure in rats; [9]) [mmHg] | Blood pressure (blood pressure in rats; [10]) [mmHg] | Blood pressure (blood pressure in rats; [11]) [mmHg] | Blood pressure (blood pressure in rats; [12]) [mmHg] | Blood pressure (blood pressure in rats; [13]) [mmHg] | Blood pressure (blood pressure in rats; [14]) [mmHg] | Blood pressure (blood pressure in rats; [15]) [mmHg] | Blood pressure (blood pressure in rats; [16]) [mmHg] | further results |
| --- | --- | --- | --- | --- | --- | --- | --- | --- | --- | --- | --- | --- | --- | --- | --- | --- | --- | --- | --- | --- | --- |
| [2H]C([2H])([2H])Oc1cc2c(cc1OC)CCN1Cc3c(ccc(OC([2H])([2H])[2H])c3OC)C[C@@H]21 [Formula I6, (13a S)-3,9-dimethoxy-2,10-di-[(trideutero)-methoxy]-6,8,13,13a-tetrahydro-5H-isoquinolino[2,1-b]isoquinoline] | 41.9 ± 9.2 | 66.7 ± 8.7 | 38.6 ± 9.4 | 40.3 ± 9.0 | 63.80 | 69.12 | 183.27 ± 33.97 | 129.35 ± 23.66 | 115.6 ± 21.9 | 108.5 ± 10.75 | 102.0 ± 11.4 | 104.7 ± 10.70 | 110.5 ± 6.8 | 106.5 ± 13.7 | 111.0 ± 21.4 | 95.4 ± 14.5 | 83.5 ± 10.30 | 85.2 ± 8.0 | 110.00 ± 11.6 | 109.5 ± 14.1 | Heart rate (heart rate in rats; [5]): 407.1 ± 43.4 BTM; Heart rate (heart rate in rats; [6]): 400.2 ± 29.4 BTM; Heart rate (heart rate in rats; [7]): 401.0 ± 28.47 BTM; Heart rate (heart rate in rats; [8]): 403.0 ± 30.2 BTM; Heart rate (heart rate in rats; [9]): 396.7 ± 36.3 BTM; Heart rate (heart rate in rats; [10]): 402.5 ± 28.8 BTM; Heart rate (heart rate in rats; [11]): 414.1 ± 37.6 BTM; Heart rate (heart rate in rats; [12]): 375.8 ± 29.3 BTM; Heart rate (heart rate in rats; [13]): 362.8 ± 20.7 BTM; Heart rate (heart rate in rats; [14]): 367.2 ± 27.0 BTM; Heart rate (heart rate in rats; [15]): 393.5 ± 34.6 BTM; Heart rate (heart rate in rats; [16]): 380.8 ± 30.5 BTM; ALT (Wistar rats): 165.3 ± 38.0 U/L; AST (Wistar rats): 251.8 ± 32.0 U/L; histopathological examination of liver (Wistar rats): vacuolar degeneration of hepatocytes; plasma ALT and AST versus control group (Wistar rats): significant increase |
| [2H]C([2H])([2H])Oc1cc2c(cc1OC)[C@@H]1Cc3ccc(OC)c(OC)c3CN1CC2 [Formula I4, (13a S)-2,9,10-trimethoxy-3-[(trideutero)-methoxy]-6,8,13,13a-tetrahydro-5H-isoquinolino[2,1-b]isoquinoline] | 90.3 ± 29.0 | 151.2 ± 31.6 | 61.5 ± 36.6 | 74.3 ± 38.0 |  |  |  |  |  |  |  |  |  |  |  |  |  |  |  |  |  |
| [2H]C([2H])([2H])Oc1cc2c(cc1OC)CCN1Cc3c(ccc(OC)c3OC)C[C@@H]21 [Formula I3, (13a S)-3,9,10-trimethoxy-2-[(trideutero)-methoxy]-6,8,13,13a-tetrahydro-5H-isoquinolino[2,1-b]isoquinoline] | 79.6 ± 31.3 | 126.3 ± 29.6 | 45.1 ± 29.4 | 72.3 ± 37.8 | 44.80 | 68.67 |  |  |  |  |  |  |  |  |  |  |  |  |  |  |  |
| COc1cc2c(cc1OC)[C@@H]1Cc3ccc(OC)c(OC)c3CN1CC2 [THP, L-tetrahydropalmatine, reference compound] | 86.8 ± 37.3 | 185.2 ± 39.7 | 40.6 ± 28.3 | 97.5 ± 33.6 | 27.41 | 68.36 | 253.23 ± 77.14 | 157.04 ± 60.6 | 111.5 ± 11.5 | 109.4 ± 20.6 | 105.00 ± 28.21 | 105.1 ± 20.0 | 112.7 ± 19.3 | 113.3 ± 18.3 | 114.2 ± 14.6 | 98.0 ± 30.1 | 81.63 ± 28.8 | 79.00 ± 28.2 | 91.6 ± 24.7 | 97.3 ± 14.5 | Heart rate (heart rate in rats; [5]): 399.3 ± 32.6 BTM; Heart rate (heart rate in rats; [6]): 377.1 ± 52.3 BTM; Heart rate (heart rate in rats; [7]): 387.3 ± 50.5 BTM; Heart rate (heart rate in rats; [8]): 399.8 ± 60.7 BTM; Heart rate (heart rate in rats; [9]): 408.8 ± 55.9 BTM; Heart rate (heart rate in rats; [10]): 429.8 ± 25.5 BTM; Heart rate (heart rate in rats; [11]): 391.8 ± 32.9 BTM; Heart rate (heart rate in rats; [12]): 372.1 ± 46.5 BTM; Heart rate (heart rate in rats; [13]): 329.0 ± 63.2 BTM; Heart rate (heart rate in rats; [14]): 340.0 ± 71.4 BTM; Heart rate (heart rate in rats; [15]): 372.0 ± 64.6 BTM; Heart rate (heart rate in rats; [16]): 400.0 ± 30.5 BTM; ALT (Wistar rats): 160.0 ± 70.6 U/L; AST (Wistar rats): 216.8 ± 91.6 U/L; histopathological examination of liver (Wistar rats): vacuolar degeneration of hepatocytes; plasma ALT and AST versus control group (Wistar rats): significant increase |
| [2H]C([2H])([2H])Oc1c(OC)ccc2c1CN1CCc3cc(OC)c(OC)cc3[C@@H]1C2 [Formula I1, (13a S)-2,3,10-trimethoxy-9-[(trideutero)-methoxy]-6,8,13,13a-tetrahydro-5H-isoquinolino[2,1-b]isoquinoline] | 82.4 ± 33.2 | 194.0 ± 35.7 | 42.6 ± 45.0 | 92.7 ± 25.1 |  |  |  |  |  |  |  |  |  |  |  |  |  |  |  |  |  |
| [2H]C([2H])([2H])Oc1cc2c(cc1OC)CCN1Cc3c(ccc(OC)c3OC([2H])([2H])[2H])C[C@@H]21 [Formula I5, (13a S)-3,10-dimethoxy-2,9-di-[(trideutero)-methoxy]-6,8,13,13a-tetrahydro-5H-isoquinolino[2,1-b]isoquinoline] | 85.8 ± 28.0 | 112.7 ± 29.2 | 53.4 ± 23.5 | 66.5 ± 27.6 | 39.40 | 67.56 |  |  |  |  |  |  |  |  |  |  |  |  |  |  |  |
